Reference: the NIST ThermoML archive (doi:10.1016/j.jct.2019.06.011)

Conditions: Liquid, Gas chromatography

CC(C)=CCC[C@@H](C)c1ccc(C)cc1 [(-)-α-curcumene]
Conditions	vapor or sublimation pressure [kPa]
298.15 K	0.00097
310 K	0.003
320 K	0.007
330 K	0.015
340 K	0.032
350 K	0.063
360 K	0.12
370 K	0.21
380 K	0.37
390 K	0.62
400 K	0.99
410 K	1.6
420 K	2.4
430 K	3.5
440 K	5.1
450 K	7.3
460 K	10
470 K	14
480 K	19
490 K	25
500 K	33
510 K	42
520 K	54
530 K	68
540 K	85
548.3 K	101.3

C=C1C=C[C@@H]([C@@H](C)CCC=C(C)C)CC1 [β-sesquiphellandrene]
Conditions	vapor or sublimation pressure [kPa]
298.15 K	0.00063
310 K	0.002
320 K	0.0048
330 K	0.011
340 K	0.023
350 K	0.046
360 K	0.087
370 K	0.16
380 K	0.28
390 K	0.47
400 K	0.76
410 K	1.2
420 K	1.8
430 K	2.8
440 K	4
450 K	5.8
460 K	8.2
470 K	11
480 K	15
490 K	20
500 K	27
510 K	35
520 K	45
530 K	57
540 K	71
556.5 K	101.3

CC(C)=CCC[C@H](C)[C@@H]1C=CC(C)=CC1 [zingiberene]
Conditions	vapor or sublimation pressure [kPa]
298.15 K	0.00081
310 K	0.0025
320 K	0.006
330 K	0.013
340 K	0.028
350 K	0.056
360 K	0.11
370 K	0.19
380 K	0.33
390 K	0.56
400 K	0.91
410 K	1.4
420 K	2.2
430 K	3.3
440 K	4.8
450 K	6.8
460 K	9.6
470 K	13
480 K	18
490 K	24
500 K	31
510 K	41
520 K	52
530 K	66
540 K	83
549.5 K	101.3
